Assay: molar heat capacity at constant pressure; xn = mol fraction of the nth substance listed
Details: 101 kPa, Liquid, x1 = 0.37

CCCCn1cc[n+](C)c1.Cc1ccc(S(=O)(=O)[O-])cc1 [1-butyl-3-methylimidazolium tosylate] + O
Details | molar heat capacity at constant pressure [J/K/mol]
78.74 K | 66.26
81.34 K | 67.77
83.37 K | 68.91
85.4 K | 70.17
87.43 K | 71.43
89.46 K | 72.69
91.5 K | 73.83
93.53 K | 75.09
95.58 K | 76.35
97.63 K | 77.49
99.68 K | 78.62
101.73 K | 79.76
103.78 K | 81.02
105.84 K | 82.16
107.9 K | 83.29
109.96 K | 84.43
112.02 K | 85.57
114.09 K | 86.7
116.17 K | 87.84
118.24 K | 88.97
120.32 K | 90.23
122.39 K | 91.37
124.47 K | 92.51
126.55 K | 93.64
128.64 K | 94.78
130.73 K | 96.04
132.81 K | 97.3
134.9 K | 98.31
136.98 K | 99.57
139.08 K | 100.71
141.17 K | 101.85
143.27 K | 103.11
145.36 K | 104.24
147.46 K | 105.38
149.56 K | 106.64
151.66 K | 107.78
153.77 K | 108.91
155.87 K | 110.17
157.98 K | 111.44
160.09 K | 112.57
162.2 K | 113.71
164.31 K | 114.97
166.42 K | 116.23
168.54 K | 117.37
170.66 K | 118.63
172.78 K | 119.89
174.9 K | 121.03
177.02 K | 122.29
179.14 K | 123.55
181.27 K | 124.94
183.39 K | 126.58
185.51 K | 128.6
187.64 K | 131.63
189.76 K | 138.07
191.84 K | 148.79
193.9 K | 159.02
195.93 K | 176.18
198 K | 179.59
200.12 K | 180.34
202.26 K | 181.1
204.39 K | 181.73
206.52 K | 182.24
208.65 K | 182.87
210.79 K | 183.5
212.93 K | 184.13
215.07 K | 184.63
217.23 K | 185.39
219.38 K | 185.9
221.54 K | 186.65
223.7 K | 187.28
225.87 K | 188.04

— the NIST ThermoML archive (doi:10.1021/je700152c)
